Two compounds from publication PMC4434572, “Identification of novel drugs to target dormant micrometastases” (BMC Cancer, 2015) can be followed below.

One data set can be described thus: in vivo. Particulars: mouse.
A further data set concerns MDA-MB-435-GFP cells. Put plainly: Flank xenograft model of ECM-suppressed cells co-injected with SISgel. As to conditions: 45 mg/kg i.p. three times weekly for 3 weeks; 4 weeks after implantation. Type of data set: in vivo, nu/nu mice. On the procedure: The efficacy of DT320 was assessed using a flank xenograft model of ECM-suppressed cancer cells that we developed, as well as an orthotopic model of “triple-negative” breast cancer. All animal protocols were reviewed and approved by the OUHSC Institutional Animal Care and Use Committee according to criteria established by the NIH Office of Laboratory Animal Welfare, and animals were housed 5 per cage with enrichment (tubes) and wood chips in the AALAC-accredited OUHSC Animal Facility with a 12 h light/dark cycle. Animals had access to water and food ad libatum. Animals were monitored daily by trained facility personnel. In the flank model, GFP-labeled cells were co-injected with SISgel, which produces a suppressed, normalized phenotype that persists after the SISgel is resorbed, but which can re-emerge into active tumor growth after 30–60 days. Animals were all female nu/nu mice (NCI National Laboratory Frederick/Charles River animal production program). An optimized number of 5 × 10^5 GFP-labeled MDA-MB-435 cells in 100 μL DMEM medium, without additives, were mixed with 100 μL of SISgel and were kept on ice until injection to prevent polymerization of the SISgel. […] The cells injected into the flanks remained as a non-growing spot, as assessed by fluorometry of the spots and the lack of mitoses seen in tissue sections, for about 3–5 weeks before some began resuming malignant growth. […]

The test system of another data set is DU145 (prostate). Put plainly: Proliferation EC50 on Matrigel vs SISgel. Type of data set: cell-based.
The test system of data set [1] is MDA-MB-435 cells. Nature of the data set: Western blot of protein levels after treatment. The data set is classed as cell-based. On the procedure: Protein content of selected proteins identified by reversed phase protein array (see supplementary materials) as being involved mechanistically in the response to DT320 was assayed by Western blot as described using the following antibodies. The following antibodies were purchased from Cell Signaling Technology (Beverly, MA) and diluted per manufacturer’s directions: Rabbit mAb Anti-Phospho-AKT (Ser473) (D9E) XP® #4060, Rabbit mAb anti-p38 MAPK (D13E1) XP® #8690, Mouse mAb anti-Phospho-SAPK/JNK (Thr183/Tyr185) (G9) #9255, Rabbit mAb anti-Phospho-CHK1 (Ser345) (133D3) #2348, Rabbit polyclonal anti-Phospho-CHK2 (Thr68) Antibody #2661, Rabbit polyclonal anti-BAX Antibody #2772, Rabbit polyclonal anti-Vinculin Antibody #4650, Mouse mAb anti-Cyclin D1 (DCS6) #2926, Rabbit mAb anti-Cyclin E2 (D52F9) b #3741, […], Mouse mAb anti-Cyclin B1 (V152) #4135, Rabbit mAb anti-cleaved PARP (Asp214) (D64E10) XP® #5625, Rabbit mAb anti-cleaved Caspase-3 (Asp175) (5A1E) #9654, Rabbit mAb anti-Nanog (D73G4), #4903; Rabbit mAb anti-Oct4 (C52G3) #2890; and Rabbit mAb anti-Sox2 (D6D9) #3579. Specificity of each antibody is illustrated on the company’s web page. For negative controls, pre-immune rabbit IgG was used. No signal was detected in the control IgG samples. No intensities or contrast were modified, but the appropriate bands were cut out using PhotoShop to prepare composite gel images.
To elucidate the mechanism of DT310 and DT320, cell cycle analysis and Western blotting was performed. The proteins for Western blot were selected from preliminary results using reverse phase protein array (RPPA) for DT320 and DT321 treated MDA-MB-435 and T24 cells. […] Proteins within these clusters showing the largest differences in protein expression and that were related to known anticancer drug action were confirmed by Western blot. Docetaxel was used as a positive control because it is known to induce a cell cycle arrest and apoptosis signature.
A general note: In western blotting, separated proteins are transferred to a membrane and probed.

Data set [2] concerns MDA-MB-435 cells. Nature of the data set: Proliferation (CFDA-AM esterase assay) of cells grown on SISgel, plastic or Matrigel, 48 h drug exposure. Type of data set: cell-based. Particulars: MDA-MB-435 grown on Matrigel (fully malignant phenotype).
In the next data set the test system is U251 (glioblastoma). Put plainly: Proliferation EC50 on Matrigel vs SISgel. Type of data set: cell-based.
The test system of another data set is AGS (gastric). Nature of the data set: Proliferation EC50 on Matrigel vs SISgel. Type of data set: cell-based.

Several values for one entry are separate records, joined by “and”; a condition that tells them apart may be missing. Equal entries are not always repeated. Where two headings read alike, the source gives them in different places.

As to `COc1cccc2c1C(=O)c1c(O)c3c(c(O)c1C2=O)C[C@@](O)(C(=O)CO)C[C@@H]3O[C@H]1C[C@H](N)[C@H](O)[C@H](C)O1` [Doxorubicin, reference compound], the MTD stood at 1 mg/kg in “in vivo” (BALB/c, ip) and 1 mg/kg in “in vivo”.
As to `O=S(=O)([O-])c1cc(O)c2c(O)c(N=Nc3cccc4ccccc34)c(S(=O)(=O)[O-])cc2c1.[Na+].[Na+]` [DT320, 4,5-Dihydroxy-3-(1-naphthalenylazo)-2,7-naphthalenedisulfonic acid disodium salt], in the data set with MDA-MB-435-GFP cells, the “flank xenografts in which ECM-suppressed cells were extirpated / spots disappeared” value is “six of eight and 6 of 8”. The EC50 with DU145 (prostate) (DU145 on Matrigel, read-out: EC50 Matrigel) stood at 183 µM; in the data set on DU145 (prostate) (DU145 on SISgel, read-out: EC50 SISgel), 45.7 µM; in the data set with MDA-MB-435 cells [2], 48.2 µM; with U251 (glioblastoma) (U251 on Matrigel, read-out: EC50 Matrigel) it was 95 µM; in the data set with U251 (glioblastoma) (U251 on SISgel, read-out: EC50 SISgel), 64.6 µM; in the data set with AGS (gastric) (AGS on Matrigel, read-out: EC50 Matrigel), 104 µM. Besides, the EC50 with AGS (gastric) (AGS on SISgel, read-out: EC50 SISgel) came to 45.1 µM. The Ratio in the data set on DU145 (prostate) (Matrigel/SISgel EC50, DU145) is 4.0; with U251 (glioblastoma) (Matrigel/SISgel EC50, U251), 1.5; in the data set with AGS (gastric) (Matrigel/SISgel EC50, AGS) it was 2.3. Besides, in the data set with MDA-MB-435 cells [1], the “Cyclin D1 (CCND1) expression” value is “induced”. Besides, the “cleaved caspase 3” value with MDA-MB-435 cells [1] (48 h) is recorded as “increased signal”.

The term EC50 denotes the midpoint of the concentration-response curve.
